Experimental data reported in patent US8735414B2 (priority 2009, dated 2014).

Key:
[1] = test system: bicistronic HCV replicon (replicon RNA, GenBank Accession No. AJ242654); assay: HCV Replicon Assay; format: cell-based; conditions: Hepatitis C virus, 72 h, read-out: Replicon IC50

Structure (SMILES) | IC50 [1] [nM] | melting point [°C]
N#Cc1c(-c2ccc(S(=O)(=O)NC(CF)CF)cn2)n(-c2ccccn2)c2cc(OC(F)F)ccc12 [compound 249, 6-[3-cyano-6-(difluoromethoxy)-1-(pyridin-2-yl)-1H-indol-2-yl]-N-(1,3-difluoropropan-2-yl)pyridine-3-sulfonamide] | < 500 | 186 to 190
CCn1c(-c2ccc(N(C(C)C)S(=O)(=O)CC)cn2)c(C#N)c2ccc(OC(C)C)cc21 [compound 282, N-{6-[3-cyano-1-ethyl-6-(propan-2-yloxy)-1H-indol-2-yl]pyridin-3-yl}-N-(propan-2-yl)ethanesulfonamide] | 500 to 2000 | 170 to 175
C[C@H](NS(=O)(=O)c1cnc(-c2c(C#N)c3ccc(F)cc3n2C2CCC2)nc1)C1CC1 [compound 496, 2-(3-cyano-1-cyclobutyl-6-fluoro-1H-indol-2-yl)-N-[(1S)-1-cyclopropylethyl]pyrimidine-5-sulfonamide] | 500 to 2000 | 207 to 208
Cc1cc2c(cc1Cl)c(C(N)=O)c(-c1ncc(S(=O)(=O)N[C@@H](C)C(F)(F)F)cn1)n2C1CCC1 [compound 733, 5-chloro-1-cyclobutyl-6-methyl-2-(5-{[(2S)-1,1,1-trifluoropropan-2-yl]sulfamoyl}pyrimidin-2-yl)-1H-indole-3-carboxamide] | < 500 | 171 to 173
CC[C@H](NS(=O)(=O)c1ccc(-c2c(C#N)c3cc(F)c(OC(F)F)cc3n2C2CCC2)nc1)C(F)(F)F [compound 738, 6-[3-cyano-1-cyclobutyl-6-(difluoromethoxy)-5-fluoro-1H-indol-2-yl]-N-[(2S)-1,1,1-trifluorobutan-2-yl]pyridine-3-sulfonamide] | < 500 | 166 to 173
C[C@H](NS(=O)(=O)c1ccc(-c2c(C#N)c3ccc(OC(F)F)cc3n2C2CCCC2)nc1)C1CC1 [compound 174, 6-[3-cyano-1-cyclopentyl-6-(difluoromethoxy)-1H-indol-2-yl]-N-[(1S)-1-cyclopropylethyl]pyridine-3-sulfonamide] | < 500 | 176 to 182
CCc1cc2c(cc1F)c(C(N)=O)c(-c1ccc(NS(=O)(=O)C(C)(C)C)cn1)n2C1CCCCC1 [compound 999, 2-{5-[(tert-butylsulfonyl)amino]pyridin-2-yl}-1-cyclohexyl-6-ethyl-5-fluoro-1H-indole-3-carboxamide] | < 500 | 264 to 265
CC(C)(C)NS(=O)(=O)c1ccc(-c2c(C#N)c3cc(F)c(C4CC4)cc3n2C2CCCC2)nc1 [compound 832, N-tert-butyl-6-(3-cyano-1-cyclopentyl-6-cyclopropyl-5-fluoro-1H-indol-2-yl)pyridine-3-sulfonamide] | < 500 | 186 to 188
CCc1cc2c(cc1F)c(C#N)c(-c1ccc(S(=O)(=O)N[C@H](C)C(F)(F)F)cn1)n2C1CCC1 [compound 641, 6-(3-cyano-1-cyclobutyl-6-ethyl-5-fluoro-1H-indol-2-yl)-N-[(2R)-1,1,1-trifluoropropan-2-yl]pyridine-3-sulfonamide] | < 500 | 199 to 199.5
Cc1c(F)cc2c(C#N)c(-c3ccc(S(=O)(=O)NC(CF)CF)cn3)n(C3CCC3)c2c1F [compound 533, 6-(3-cyano-1-cyclobutyl-5,7-difluoro-6-methyl-1H-indol-2-yl)-N-(1,3-difluoropropan-2-yl)pyridine-3-sulfonamide] | < 500 | 158 to 170
CCc1cc2c(cc1F)c(C(N)=O)c(-c1ccc(S(=O)(=O)N[C@@H](C)C(F)(F)F)cn1)n2-c1ccc(Cl)cc1 [compound 1020, 1-(4-chlorophenyl)-6-ethyl-5-fluoro-2-(5-{[(2S)-1,1,1-trifluoropropan-2-yl]sulfamoyl}pyridin-2-yl)-1H-indole-3-carboxamide] | < 500 | 240 to 247
CC(C)NS(=O)(=O)c1ccc(-c2c(C#N)c3cc(OC(F)(F)F)ccc3n2C2CCC2)nc1 [compound 23, 6-[3-cyano-1-cyclobutyl-5-(trifluoromethoxy)-1H-indol-2-yl]-N-(propan-2-yl)pyridine-3-sulfonamide] | – | 174 to 176
CC(C)(NS(=O)(=O)c1ccc(-c2c(C#N)c3ccc(OC(F)F)cc3n2C2CCC2)nc1)C(F)(F)F [compound 479, 6-[3-cyano-1-cyclobutyl-6-(difluoromethoxy)-1H-indol-2-yl]-N-(1,1,1-trifluoro-2-methylpropan-2-yl)pyridine-3-sulfonamide] | – | 165 to 171
C[C@H](NS(=O)(=O)c1ccc(-c2c(C#N)c3ccc(OC(F)F)cc3n2C2CCC2)nc1)C1CC1 [compound 151, 6-[3-cyano-1-cyclobutyl-6-(difluoromethoxy)-1H-indol-2-yl]-N-[(1S)-1-cyclopropylethyl]pyridine-3-sulfonamide] | – | 163 to 168
CC(C)NS(=O)(=O)c1ccc(-c2c(C#N)c3ccc(OCC(F)F)cc3n2C2CCC2)nc1 [compound 59, 6-[3-cyano-1-cyclobutyl-6-(2,2-difluoroethoxy)-1H-indol-2-yl]-N-(propan-2-yl)pyridine-3-sulfonamide] | – | 171 to 173
CC(C)NS(=O)(=O)c1ccc(-c2c(C#N)c3ccc(OC(F)F)cc3n2CC2CC2)cn1 [compound 40, 5-[3-cyano-1-(cyclopropylmethyl)-6-(difluoromethoxy)-1H-indol-2-yl]-N-(propan-2-yl)pyridine-2-sulfonamide] | – | 186 to 188

Structure (SMILES) | IC50 [1] [nM] | melting point [°C]
N#Cc1c(-c2ccc(S(N)(=O)=O)cn2)n(C2CCC2)c2cc(OC(F)F)ccc12 [compound 552, 6-[3-cyano-1-cyclobutyl-6-(difluoromethoxy)-1H-indol-2-yl]pyridine-3-sulfonamide] | – | 204 to 205
CC(C#N)NS(=O)(=O)c1ccc(-c2c(C#N)c3ccc(OC(F)F)cc3n2C2CCC2)nc1 (stereo not drawn) [compound 301, 6-[3-cyano-1-cyclobutyl-6-(difluoromethoxy)-1H-indol-2-yl]-N-(1-cyanoethyl)pyridine-3-sulfonamide] | – | 188 to 190
C[C@H](NS(=O)(=O)c1ccc(-c2c(C#N)c3ccc(OC(F)F)cc3n2C2CCC2)nc1)C(F)(F)F [compound 300, 6-[3-cyano-1-cyclobutyl-6-(difluoromethoxy)-1H-indol-2-yl]-N-[(2S)-1,1,1-trifluoropropan-2-yl]pyridine-3-sulfonamide] | – | 159 to 162
CC(C)NS(=O)(=O)c1ccc(-c2c(C#N)c3ccc(OC(F)F)cc3n2C2CCCCC2)nc1 [compound 99, 6-[3-cyano-1-cyclohexyl-6-(difluoromethoxy)-1H-indol-2-yl]-N-(propan-2-yl)pyridine-3-sulfonamide] | – | 187 to 190
CCCn1c(-c2ccc(S(=O)(=O)NC(C)C)cn2)c(C#N)c2ccc(OC(F)F)cc21 [compound 3, 6-[3-cyano-6-(difluoromethoxy)-1-propyl-1H-indol-2-yl]-N-(propan-2-yl)pyridine-3-sulfonamide] | – | 166 to 170
CC(C)NS(=O)(=O)c1ccc(-c2c(C#N)c3ccc(C(F)F)cc3n2C2CCC2)nc1 [compound 333, 6-[3-cyano-1-cyclobutyl-6-(difluoromethyl)-1H-indol-2-yl]-N-(propan-2-yl)pyridine-3-sulfonamide] | – | 212 to 220
C[C@@H](NS(=O)(=O)c1ccc(-c2c(C#N)c3ccc(C4CC4)cc3n2C2CCC2)nc1)C(F)(F)F [compound 212, 6-(3-cyano-1-cyclobutyl-6-cyclopropyl-1H-indol-2-yl)-N-[(2R)-1,1,1-trifluoropropan-2-yl]pyridine-3-sulfonamide] | – | 192 to 196
CC(C)NS(=O)(=O)c1ccc(-c2c(C#N)c3cc(OC(F)F)ccc3n2C2CCC2)nc1 [compound 19, 6-[3-cyano-1-cyclobutyl-5-(difluoromethoxy)-1H-indol-2-yl]-N-(propan-2-yl)pyridine-3-sulfonamide] | – | 148 to 153
N#Cc1c(-c2ccc(S(=O)(=O)NC3(C(F)(F)F)CC3)cn2)n(C2CCC2)c2cc(OC(F)F)ccc12 [compound 93, 6-[3-cyano-1-cyclobutyl-6-(difluoromethoxy)-1H-indol-2-yl]-N-[1-(trifluoromethyl)cyclopropyl]pyridine-3-sulfonamide] | – | 182 to 187
CC(C)NS(=O)(=O)c1ccc(-c2c(C#N)c3ccc(C4CCC4)cc3n2C2CCC2)nc1 [compound 266, 6-(3-cyano-1,6-dicyclobutyl-1H-indol-2-yl)-N-(propan-2-yl)pyridine-3-sulfonamide] | – | 178 to 180
CC(C)NS(=O)(=O)c1cnc(-c2c(C#N)c3ccc(OC(F)F)cc3n2CC2CC2)nc1 [compound 170, 2-[3-cyano-1-(cyclopropylmethyl)-6-(difluoromethoxy)-1H-indol-2-yl]-N-(propan-2-yl)pyrimidine-5-sulfonamide] | – | 182 to 184
CC(C)NS(=O)(=O)c1ccc(-c2c(C#N)c3ccc(OC(F)F)cc3n2CC2CC2)nc1 [compound 13, 6-[3-cyano-1-(cyclopropylmethyl)-6-(difluoromethoxy)-1H-indol-2-yl]-N-(propan-2-yl)pyridine-3-sulfonamide] | – | 154 to 156
CC(C)NS(=O)(=O)c1ccc(-c2c(C#N)c3ccc(OC(F)(F)F)cc3n2C2CCC2)nc1 [compound 10, 6-[3-cyano-1-cyclobutyl-6-(trifluoromethoxy)-1H-indol-2-yl]-N-(propan-2-yl)pyridine-3-sulfonamide] | – | 191 to 193
CC(C)NS(=O)(=O)c1ccc(-c2c(C#N)c3ccc(OC(F)F)cc3n2C2CCC2)nc1 [compound 51, 6-[3-cyano-1-cyclobutyl-6-(difluoromethoxy)-1H-indol-2-yl]-N-(propan-2-yl)pyridine-3-sulfonamide] | – | 158 to 159
CC(NS(=O)(=O)c1ccc(-c2c(C#N)c3ccc(OC(F)F)cc3n2C2CCC2)nc1)C(F)(F)F (stereo not drawn) [compound 78, 6-[3-cyano-1-cyclobutyl-6-(difluoromethoxy)-1H-indol-2-yl]-N-(1,1,1-trifluoropropan-2-yl)pyridine-3-sulfonamide] | – | 159 to 165
